From patent publication US10617693B2, “Methods of treating and/or preventing actinic keratosis” (Athenex, Inc., priority 2017, dated 2020)

Tested on: subjects with AK on the face or scalp
Assay: Phase 2a study KX01-AK-002: local skin reactions (grade 0 not present to 4 worst) and adverse events, 0.5 mg KX-01 on 25 cm^2
Type: in vivo, human
Excerpt: An ongoing Phase 2a, open-label, multicenter, activity and safety study of KX-01 administered topically in subjects with AK on the face or scalp is described herein. […] Secondary objectives are to assess the activity of KX-01 administered topically during Days 1-57 based on reduction of AK lesion counts from baseline, assess the safety and tolerability and pharmacokinetics, and contrast the dose regimens (5-day treatment with 3-day treatment) in terms of activity and safety in subjects with AK on the face or scalp. This uncontrolled, nonrandomized trial is being conducted at 16 investigational sites in the United States. Enrollment is sequential for 2 cohorts of approximately 80 subjects each. Enrollment is closed for Cohort 1 and ongoing for Cohort 2. The two treatment cohorts are summarized below: • Cohort 1: 0.5 mg KX-01 administered topically to a contiguous treatment area of 25 cm^2 with 4-8 clinically typical AK lesions for 5 consecutive days • Cohort 2: 0.5 mg KX-01 administered topically to a contiguous treatment area of 25 cm^2 with 4-8 clinically typical AK lesions for 3 consecutive days
0.5 mg KX-01 is administered topically to an area of 25 cm^2 on the face or scalp by site staff on treatment days. […] AK lesion counts are recorded at baseline, days 8, 15, 29, and 57. […] Standardized photography of treatment area is performed at baseline, day 8 and day 57. Plasma samples are being collected at preplanned time points on days 1 and 5 for Cohort 1, and on days 1 and 3 for Cohort 2.
Absence or presence of hyperpigmentation, hypopigmentation and scarring are also assessed. Application site reactions not classified as LSRs are reported as AEs. […] LSRs and AEs are reported separately. All LSRs, pigmentation, and scarring in the treatment area will be followed to resolution or stabilization.
The range of possible composite scores is 0-24.
The Phase 2a trial described in Example 2a was completed with 84 eligible subjects enrolled in each of two cohorts: one cohort was subjected to the treatment for 5 consecutive days, and the other cohort was subjected to the treatment for 3 consecutive days. The results are described below and in FIG. 5.

[1] = Cohort 1 (5-day), 67 subjects with day 57 visit

O=C(Cc1ccc(-c2ccc(OCCN3CCOCC3)cc2)cn1)NCc1ccccc1 [KX-01]
63/67: Crusting grade 0, n/N subjects (Day 3, Cohort 1 (5-day))
62/67: Crusting grade 0, n/N subjects (Day 1, Cohort 1 (5-day))
51/67: Flaking/Scaling grade 0, n/N subjects (Day 2, Cohort 1 (5-day))
7: Subjects with no LSR in the treatment area throughout the study [1]
56/67: Erythema grade 0, n/N subjects (Day 1, Cohort 1 (5-day))
14/67: Flaking/Scaling grade 1, n/N subjects (Day 3, Cohort 1 (5-day))
2/67: Crusting grade 1, n/N subjects (Day 2, Cohort 1 (5-day)) | Flaking/Scaling grade 3, n/N subjects (Day 3, Cohort 1 (5-day))
1/67: Crusting grade 2, n/N subjects (Day 2, Cohort 1 (5-day)) | Flaking/Scaling grade 2, n/N subjects (Day 2, Cohort 1 (5-day)) | Crusting grade 2, n/N subjects (Day 3, Cohort 1 (5-day)) | Erosion/Ulceration grade 1, n/N subjects (Day 3, Cohort 1 (5-day)) | Erythema grade 3, n/N subjects (Day 3, Cohort 1 (5-day))
12: Number of TEAEs considered related to KX-01 (Cohort 1 (5-day), N=82)
54: Total number of TEAEs (Cohort 1 (5-day), N=82)
6: Cases of application site reaction (Cohort 1 (5-day), N=82, mild tenderness, stinging, pruritus)
67/67: Erosion/Ulceration grade 0, n/N subjects (Day 1, Cohort 1 (5-day)) | Swelling grade 0, n/N subjects (Day 1, Cohort 1 (5-day)) | Vesiculation/Pustulation grade 0, n/N subjects (Day 1, Cohort 1 (5-day)) | Erosion/Ulceration grade 0, n/N subjects (Day 2, Cohort 1 (5-day)) | Swelling grade 0, n/N subjects (Day 2, Cohort 1 (5-day)) | Vesiculation/Pustulation grade 0, n/N subjects (Day 2, Cohort 1 (5-day)) | Swelling grade 0, n/N subjects (Day 3, Cohort 1 (5-day))
32/67: Erythema grade 0, n/N subjects (Day 3, Cohort 1 (5-day))
46/67: Flaking/Scaling grade 0, n/N subjects (Day 3, Cohort 1 (5-day))
Three: Subjects with vesiculation/pustulation [1]
11/67: Erythema grade 1, n/N subjects (Day 1, Cohort 1 (5-day))
20/67: Erythema grade 1, n/N subjects (Day 2, Cohort 1 (5-day))
12/67: Flaking/Scaling grade 1, n/N subjects (Day 1, Cohort 1 (5-day))
Seven: Subjects reporting TEAEs considered related to KX-01 (Cohort 1 (5-day), N=82)
64/67: Crusting grade 0, n/N subjects (Day 2, Cohort 1 (5-day))
5/67: Crusting grade 1, n/N subjects (Day 1, Cohort 1 (5-day)) | Flaking/Scaling grade 2, n/N subjects (Day 3, Cohort 1 (5-day))
15/67: Flaking/Scaling grade 1, n/N subjects (Day 2, Cohort 1 (5-day))
0: Crusting grade 2, n/N subjects (Day 1, Cohort 1 (5-day)) | Crusting grade 3, n/N subjects (Day 1, Cohort 1 (5-day)) | Crusting grade 4, n/N subjects (Day 1, Cohort 1 (5-day)) | Erosion/Ulceration grade 1, n/N subjects (Day 1, Cohort 1 (5-day)) | Erosion/Ulceration grade 2, n/N subjects (Day 1, Cohort 1 (5-day)) | Erosion/Ulceration grade 3, n/N subjects (Day 1, Cohort 1 (5-day)) | Erosion/Ulceration grade 4, n/N subjects (Day 1, Cohort 1 (5-day)) | Erythema grade 2, n/N subjects (Day 1, Cohort 1 (5-day)) | Erythema grade 3, n/N subjects (Day 1, Cohort 1 (5-day)) | Erythema grade 4, n/N subjects (Day 1, Cohort 1 (5-day)) | Flaking/Scaling grade 2, n/N subjects (Day 1, Cohort 1 (5-day)) | Flaking/Scaling grade 3, n/N subjects (Day 1, Cohort 1 (5-day)) | Flaking/Scaling grade 4, n/N subjects (Day 1, Cohort 1 (5-day)) | Swelling grade 1, n/N subjects (Day 1, Cohort 1 (5-day)) | Swelling grade 2, n/N subjects (Day 1, Cohort 1 (5-day)) | Swelling grade 3, n/N subjects (Day 1, Cohort 1 (5-day)) | Swelling grade 4, n/N subjects (Day 1, Cohort 1 (5-day)) | Vesiculation/Pustulation grade 1, n/N subjects (Day 1, Cohort 1 (5-day)) | Vesiculation/Pustulation grade 2, n/N subjects (Day 1, Cohort 1 (5-day)) | Vesiculation/Pustulation grade 3, n/N subjects (Day 1, Cohort 1 (5-day)) | Vesiculation/Pustulation grade 4, n/N subjects (Day 1, Cohort 1 (5-day)) | Crusting grade 3, n/N subjects (Day 2, Cohort 1 (5-day)) | Crusting grade 4, n/N subjects (Day 2, Cohort 1 (5-day)) | Erosion/Ulceration grade 1, n/N subjects (Day 2, Cohort 1 (5-day)) | Erosion/Ulceration grade 2, n/N subjects (Day 2, Cohort 1 (5-day)) | Erosion/Ulceration grade 3, n/N subjects (Day 2, Cohort 1 (5-day)) | Erosion/Ulceration grade 4, n/N subjects (Day 2, Cohort 1 (5-day)) | Erythema grade 3, n/N subjects (Day 2, Cohort 1 (5-day)) | Erythema grade 4, n/N subjects (Day 2, Cohort 1 (5-day)) | Flaking/Scaling grade 3, n/N subjects (Day 2, Cohort 1 (5-day)) | Flaking/Scaling grade 4, n/N subjects (Day 2, Cohort 1 (5-day)) | Swelling grade 1, n/N subjects (Day 2, Cohort 1 (5-day)) | Swelling grade 2, n/N subjects (Day 2, Cohort 1 (5-day)) | Swelling grade 3, n/N subjects (Day 2, Cohort 1 (5-day)) | Swelling grade 4, n/N subjects (Day 2, Cohort 1 (5-day)) | Vesiculation/Pustulation grade 1, n/N subjects (Day 2, Cohort 1 (5-day)) | Vesiculation/Pustulation grade 2, n/N subjects (Day 2, Cohort 1 (5-day)) | Vesiculation/Pustulation grade 3, n/N subjects (Day 2, Cohort 1 (5-day)) | Vesiculation/Pustulation grade 4, n/N subjects (Day 2, Cohort 1 (5-day)) | Crusting grade 3, n/N subjects (Day 3, Cohort 1 (5-day)) | Crusting grade 4, n/N subjects (Day 3, Cohort 1 (5-day)) | Erosion/Ulceration grade 2, n/N subjects (Day 3, Cohort 1 (5-day)) | Erosion/Ulceration grade 3, n/N subjects (Day 3, Cohort 1 (5-day)) | Erosion/Ulceration grade 4, n/N subjects (Day 3, Cohort 1 (5-day)) | Erythema grade 4, n/N subjects (Day 3, Cohort 1 (5-day)) | Flaking/Scaling grade 4, n/N subjects (Day 3, Cohort 1 (5-day)) | Swelling grade 1, n/N subjects (Day 3, Cohort 1 (5-day)) | Swelling grade 2, n/N subjects (Day 3, Cohort 1 (5-day)) | Swelling grade 3, n/N subjects (Day 3, Cohort 1 (5-day)) | Swelling grade 4, n/N subjects (Day 3, Cohort 1 (5-day))
3: Number of SAEs (Cohort 1 (5-day), in 2 subjects, none considered related to study drug)
8: Subjects whose LSRs had not returned to baseline at day 57 (Cohort 1 (5-day), of 60 subjects with LSRs)
10/67: Erythema grade 2, n/N subjects (Day 3, Cohort 1 (5-day))
24/67: Erythema grade 1, n/N subjects (Day 3, Cohort 1 (5-day))
44/67: Erythema grade 0, n/N subjects (Day 2, Cohort 1 (5-day))
55/67: Flaking/Scaling grade 0, n/N subjects (Day 1, Cohort 1 (5-day))
66/67: Erosion/Ulceration grade 0, n/N subjects (Day 3, Cohort 1 (5-day))
3/67: Erythema grade 2, n/N subjects (Day 2, Cohort 1 (5-day)) | Crusting grade 1, n/N subjects (Day 3, Cohort 1 (5-day))
